Assay results published in patent US20240262878A1, “PHOTOACTIVATABLE GASDERMIN PROTEINS” (THE BOARD OF TRUSTEES OF THE UNIVERSITY OF ILLINOIS, priority 2021, published 2024).

What was measured:
Format in all cases: cell-based
Hela cells [1] = experiment: PhoDer activation after pretreatment with PI3K/PLC modulators, calcium flare dynamics
Procedure: (§1) Cell Culture. HeLa and RAW264.7 cells were maintained in Dulbecco's Modified Eagle Medium (DMEM) medium supplemented with 10% fetal bovine serum (FBS) and 1% penicillin and streptomycin. Cells were transfected at 50%-70% confluency using LIPOFECTAMINE® 2000 transfection reagent and incubated for 24 hours before imaging. Cells were never serum-starved. To examine endogenous inflammatory activation, RAW264.7 cells were treated with 100 ng/μL lipopolysaccharide (LPS, Invivogen) at the beginning of each experiment. Pretreatment to bias membrane composition by phosphatidylinositol 4,5-bisphosphate (PIP2) modifying enzymes was performed by incubating Hela cells in Hanks' Balanced Salt Solution (HBSS) buffer with inhibitors at 37° C. for 10 minutes to prior imaging at the following concentrations: for phosphoinositide 3-kinase (PI3K), cells were treated 10 μM wortmannin (Tocris); and for phospholipase C (PLC), cells were treated with 10 μM U73122 (Tocris). Cells were removed from the incubator and allowed to come to thermal equilibrium before being imaged in HBSS buffer at room temperature.
(§2) Fluorescence Imaging, Optogenetic Activation, and Post-Processing. All epifluorescence imaging was performed on a customized Nikon Ti2-E microscope equipped with individual control over excitation (EX) and emission (EM) filters, a fast LED light source (Lumencor) with fluid-cooled EMCCD (Andor), motorized stage, and examined under a 40× or 100× oil immersion objective under live focus tracking. For RFP, excitation (EX) and emission (EM) filter combinations (maxima/bandwidth in nm) are indicated. Cells were imaged at 12-15 second intervals. Emission intensities of individual cells were background-subtracted before normalization to zero time point, when optogenetic activation began. In the optical setup, optogenetic activation of PhoDer was performed using an EX filter at 440/20 nm for 20-30 ms across whole fields of view. This replicated the progression of endogenous activation of GSDMD observed in LPS-stimulated RAW264.7 cells. […] Where applicable, inhibitors were treated at the indicated concentration for 15 minutes prior to imaging.
Fluctuation Analysis and Quantification. To automate the objective isolation and quantitation of calcium flares, a post-processing algorithm was developed based on principles and normalization scheme detailed in work on photochromic stochastic optical fluctuation imaging (pcSOFI) (Dedecker et al. (2012) Proc. Natl. Acad. Sci. USA 109: 10909-10914). Briefly, fluctuation caused by the flares generate high autocorrelation signals in time-averaged series and yield high contrast at locales of the greatest ion flux. To truly reflect the local flux change, it is then normalized to remove dependence on the number of biosensors reporting at the given location using a scheme detailed previously (Mo et al. (2017) Nat. Methods 14 (4): 427-434). Using Matlab, rolling-window mean and rolling-window autocorrelation values were calculated for each pixel over each entire fluorescence time course that contained possible flares. A heuristic approach to window size was taken and a range of window sizes were examined using examples where calcium flares were visually distinct prior to setting the window size for all analyses. All such fluctuation images were then verified manually against intensity time course to ensure bone fide flare detection; particularly strong and non-overlapping flares were chosen and added to calculate kinetic parameters. […]

[2] = test system: bone marrow-derived macrophages (BMDM); experiment: IL-1β cytokine release ELISA; conditions: short-term LPS stimulation (5 minutes), mouse BMDM
Procedure: Cytokine Release. LPS-stimulated, IL-1β cytokine release from bone-marrow monocyte-derived macrophages ([…] mice) was measured using the QUANTIKINE® ELISA kit (R&D Systems). Cells were seeded in 96-well plates and pre-treated for 10 minutes with medium, 10 μM U73122, or 10 μM wortmannin. LPS (100 ng/μL, Invivogen) was then added to the cells for 5 minutes and the cell-free supernatants were recovered and subjected to the ELISA kit according to the manufacturer's instructions. The concentration of the samples in 96-well plates was measured via absorbance at 450 nm using an Epoch Microplate Spectrophotometer (Biotek Instruments). The OD values in six technical repeats each from a total of three mice (n=18) were converted into the […] levels reported via a power law fit of a serial dilution calibration curve.

Hela cells [3] = experiment: Optogenetic activation of PhoDer, membrane-targeted jRCaMP1b calcium flare imaging and fluctuation analysis; conditions: charge-altering mutations
Procedure: Cloning. Cloning and subcloning were performed using the DH5a strain of E. coli. All mammalian constructs were cloned into the pcDNA3.0 vector with a modified multiple cloning site. Plasmids were generated as follows. Gasdermin D gene was obtained from Addgene. A diffusible optogenetic GSDMD, referred to herein as “PhoDer” and set forth in SEQ ID NO: 33, was constructed according to the reported domains structure by ligating three fragments into the pcDNA3.0 vector in one reaction via Gibson Assembly (New England BioLabs). For each fragment, PCR was specifically designed to create appropriate complementation. The jRCaMP1b gene, encoding a sensitive red protein calcium indicator, was obtained from Addgene. Membrane targeted calcium indicator jRCaMP1b was constructed by ligating a PCR fragment of the calcium indicator into the restriction enzyme sites BamHI and EcoRI in a modified pcDNA3.0 vector carrying a 5′ fragment encoding the N-terminal Lyn kinase localization sequence.
as §1, §2
Fluctuation Analysis and Quantification. To automate the objective isolation and quantitation of calcium flares, a post-processing algorithm was developed based on principles and normalization scheme detailed in work on photochromic stochastic optical fluctuation imaging (pcSOFI) (Dedecker et al. (2012) Proc. Natl. Acad. Sci. USA 109: 10909-10914). Briefly, fluctuation caused by the flares generate high autocorrelation signals in time-averaged series and yield high contrast at locales of the greatest ion flux. To truly reflect the local flux change, it is then normalized to remove dependence on the number of biosensors reporting at the given location using a scheme detailed previously (Mo et al. (2017) Nat. Methods 14 (4): 427-434). […]

Hela cells [4] = experiment: Reversible optogenetics, cyclic activation
Procedure: Reversible Optogenetics. HeLa cells expressing a modified gasdermin protein of the invention (SEQ ID NO: 40) were subjected to cyclic activation. Whereas gasdermin lacking a photoactivatable linker has no ability to reverse and will kill the cell typically in 30 minutes or less, activation of reversible optogenetic gasdermin allow cells to stay alive for 2 hours or longer. Furthermore, upon closer examination, the cyclic activation pattern can clearly be detected in the response of these cells via autocorrelation function (FIG. 13). The “imprinting” of this cyclic pattern into the cellular response can only be possible if the optogenetic gasdermin protein is reversible.

Molecule: 740 Y-P
- calcium flare occurrence / calcium response with PI3K/PLC activators (Hela cells [1]): failed to elicit meaningful differences
- IL-1β release [2]: failed to elicit meaningful differences

Molecule: COc1ccc2c(c1)CC[C@@H]1[C@@H]2CC[C@]2(C)[C@@H](NCCCCCCN3C(=O)C=CC3=O)CC[C@@H]12 [U73122]
- pixel-wise calcium fluctuations, local pore activity per locale (Hela cells [1]; pretreated vs non-pretreated cells): highest activity per locale
- intracellular calcium progression after PhoDer activation (Hela cells [1]; pretreatment 10 μM): steep, cumulative rise in intracellular calcium
- IL-1β release [2]: enhanced

Molecule: Cc1cc(C)c(S(=O)(=O)Nc2cccc(C(F)(F)F)c2)c(C)c1 [m-3m3FBS]
- calcium flare occurrence / calcium response with PI3K/PLC activators (Hela cells [1]): inhibited flare occurrence for a short time
- IL-1β release [2]: did not limit LPS-stimulated IL-1β release

Molecule: COC[C@H]1OC(=O)c2coc3c2[C@@]1(C)C1=C(C3=O)[C@@H]2CCC(=O)[C@@]2(C)C[C@H]1OC(C)=O [wortmannin]
- spatial extent flares reached (Hela cells [1]; pretreatment 10 μM, n=27): 12 μm

B1: R7E/R10E/R11E: mutant at the well-conserved N-terminal region of GSDMD (protein, UniProt P57764 1-484, looked up, variant R7E R10E R11E)
Gasdermin-D: MGSAFEEVVEEVVQELDHGGEFIPVTSLQSSTGFQPYCLVVRKPSSSWFWKPRYKCVNLSIKDILEPDAAEPDVQRGRSFHFYDAMDGQIQGSVELAAPGQAKIAGGAAVSDSSSTSMNVYSLSVDPNTWQTLLHERHLRQPEHKVLQQLRSRGDNVYVVTEVLQTQKEVEVTRTHKREGSGRFSLPGATCLQGEGQGHLSQKKTVTIPSGSTLAFRVAQLVIDSDLDVLLFPDKKQRTFQPPATGHKRSTSEGAWPQLPSGLSMMRCLHNFLTDGVPAEGAFTEDFQGLRAEVETISKELELLDRELCQLLLEGLEGVLRDQLALRALEEALEQGQSLGPVEPLDGPAGAVLECLVLSSGMLVPELAIPVVYLLGALTMLSETQHKLLAEALESQTLLGPLELVGSLLEQSAPWQERSTMSLPPGLLGNSWGEGAPAWVLLDECGLELGEDTPHVCWEPQAQGRMCALYASLALLSGLSQEPH
- calcium response of mutants at other putative lipid-binding sites (Hela cells [3]): much-reduced calcium magnitude

B2: R137E: mutant at another helical region of GSDMD N-terminal domain (protein, UniProt P57764 1-484, looked up, variant R137E)
Gasdermin-D: MGSAFERVVRRVVQELDHGGEFIPVTSLQSSTGFQPYCLVVRKPSSSWFWKPRYKCVNLSIKDILEPDAAEPDVQRGRSFHFYDAMDGQIQGSVELAAPGQAKIAGGAAVSDSSSTSMNVYSLSVDPNTWQTLLHEEHLRQPEHKVLQQLRSRGDNVYVVTEVLQTQKEVEVTRTHKREGSGRFSLPGATCLQGEGQGHLSQKKTVTIPSGSTLAFRVAQLVIDSDLDVLLFPDKKQRTFQPPATGHKRSTSEGAWPQLPSGLSMMRCLHNFLTDGVPAEGAFTEDFQGLRAEVETISKELELLDRELCQLLLEGLEGVLRDQLALRALEEALEQGQSLGPVEPLDGPAGAVLECLVLSSGMLVPELAIPVVYLLGALTMLSETQHKLLAEALESQTLLGPLELVGSLLEQSAPWQERSTMSLPPGLLGNSWGEGAPAWVLLDECGLELGEDTPHVCWEPQAQGRMCALYASLALLSGLSQEPH
- calcium response of mutants at other putative lipid-binding sites (Hela cells [3]): either encumbering or abrogating the calcium response

B3: R151E/R153E: mutant at another helical region of GSDMD N-terminal domain (protein, UniProt P57764 1-484, looked up, variant R151E R153E)
Gasdermin-D: MGSAFERVVRRVVQELDHGGEFIPVTSLQSSTGFQPYCLVVRKPSSSWFWKPRYKCVNLSIKDILEPDAAEPDVQRGRSFHFYDAMDGQIQGSVELAAPGQAKIAGGAAVSDSSSTSMNVYSLSVDPNTWQTLLHERHLRQPEHKVLQQLESEGDNVYVVTEVLQTQKEVEVTRTHKREGSGRFSLPGATCLQGEGQGHLSQKKTVTIPSGSTLAFRVAQLVIDSDLDVLLFPDKKQRTFQPPATGHKRSTSEGAWPQLPSGLSMMRCLHNFLTDGVPAEGAFTEDFQGLRAEVETISKELELLDRELCQLLLEGLEGVLRDQLALRALEEALEQGQSLGPVEPLDGPAGAVLECLVLSSGMLVPELAIPVVYLLGALTMLSETQHKLLAEALESQTLLGPLELVGSLLEQSAPWQERSTMSLPPGLLGNSWGEGAPAWVLLDECGLELGEDTPHVCWEPQAQGRMCALYASLALLSGLSQEPH
- calcium response of mutants at other putative lipid-binding sites (Hela cells [3]): either encumbering or abrogating the calcium response

B4: SEQ ID NO: 40: reversible optogenetic gasdermin variant, modified gasdermin protein of the invention (protein)
chain: MGSAFERVVRRVVQELDHGGEFIPVTSLQSSTGFQPYCLVVRKPSSSWFWKPRYKCVNLSIKDILEPDAAEPDVQRGRSFHFYDAMDGQIQGSVELAAPGQAKIAGGAAVSDSSSTSMNVYSLSVDPNTWQTLLHERHLRQPEHKVLQQLRSRGDNVYVVTEVLQTQKEVEVTRTHKREGSGRFSLPGATCLQGEGQGHLSQKKTVTIPSGSTLAFRVAQLVIDSDLDVLLFPDKKQRTFQPPATGHKRSTSEGAWPQLPSGLSMMRCLHNGGGGMLATTLERIEKNFVITDPRLPDNPIIFASDSFLQLTEYSREEILGRNCRFLQGPETDRATVRKIRDAIDNQTEVTVQLINYTKSGKKFWNVFHLQPMRDYKGDVQYFIGVQLDGTERLHGAAEREAVCLIKKTAFQIAEAANDENYFGGGGVPAEGAFTEDFQGLRAEVETISKELELLDRELCQLLLEGLEGVLRDQLALRALEEALEQGQSLGPVEPLDGPAGAVLECLVLSSGMLVPELAIPVVYLLGALTMLSETQHKLLAEALESQTLLGPLELVGSLLEQSAPWQERSTMSLPPGLLGNSWGEGAPAWVLLDECGLELGEDTPHVCWEPQAQGRMCALYASLALLSGLSQEPH
- time cells stay alive under activation (Hela cells [4]; HeLa cells, cyclic activation): ≥ 2 h
- reversibility (autocorrelation function of cyclic activation) (Hela cells [4]; activations every 20 cycles): achieved
